These results are taken from patent EP0960886B1, “Peptide T and related peptides in the treatment of inflammation, including multiple sclerosis” (priority 1992, dated 1993).

Square brackets hold non-standard residues; d marks the D form. Ends that are not written are not given here. Peptide text beside a SMILES is read from it.

One assay concerns LPS. In words: LPS toxicity and survival in mice bearing Meth A ascites tumours (Example 7). Format: in vivo. The settings on record: 100 µg LPS subcutaneously with 1mg analogue. Here is the method: Mice bearing Meth A ascites tumours were given 100 µg LPS subcutaneously with either bovine serum albumin (BSA) or peptide T analogue (504 or 505, 1mg). The number of animals showing signs of LPS toxicity (diarrhoea, exudate from the eyes and general level of activity) in each group was recorded at 19, 24 and 41 hours after injection. At the completion of the experiment the number of surviving animals was recorded (see Table II below) and the survivors bled for later determination of TNF, IL-1, IL-6 and RNI levels.

In assay [1] the test system is human neutrophils. In words: LPS-induced neutrophil chemiluminescence. The conditions noted are these: LPS 0.005µg/ml. Format: cell-based. As to the method: (§1) Neutrophils. Neutrophils were isolated from whole blood from healthy blood donors. Separation was achieved by the rapid-single-step method of centrifugation of whole blood on FICOLL-HYPAQUE™. These were >99% viable and usually >98% pure.
(§2) Peptides and TNF. TNF was a recombinant product produced in E. coli. Peptide T and analogue 505 (D-Ser-Ser-D-Thr-Thr-D-Thr-Thr-Tyr-D-Thr) were resuspended in Hank's Balanced Salt Solution (HBSS).
(§3) To 100µl of 500-1000U/ml of TNF was added 10µl of peptide and after 5 min 100µl of 1x10^7 neutrophils/ml was added. The cells further incubated at 37°C/20 min and then tested for chemiluminescence activity. In some cases an agonist such as fMLP (10^-7M) was added. Chemiluminescence was measured in a luminometer (LKB). The results for Peptide T are presented in Figure 12 as peak rate of CL release. Lucigenin-dependent chemiluminescence was measured: this represents superoxide measurement. In another set of experiments the effects of analogue 505 on the LPS-induced neutrophil chemiluminescence were examined. In this case the LPS was essentially substituted for the TNF. The concentration of LPS was 0.005µg/ml.

The subject of assay [2] is human neutrophils. In words: TNF-induced neutrophil chemiluminescence (lucigenin-dependent). It is filed as cell-based. The settings on record: 500-1000U/ml TNF. As to the method:
as §1, §2, §3

Assay [3] has as its system mouse foetal hippocampal neurons. The conditions noted are these: cultures of mouse foetal hippocampal neurons; cited from earlier work.
The conditions of assay [4]: spinal administration to rats; tail-flick latency and tail-shock induced vocalisation; cited from earlier work. On the technique in general: Thermal pain tests record how soon the animal reacts.

On to `C[C@H](O)[C@@H](NC(=O)[C@H](Cc1ccc(O)cc1)NC(=O)[C@H](CC(N)=O)NC(=O)[C@H](NC(=O)[C@@H](NC(=O)[C@H](NC(=O)[C@H](CO)NC(=O)[C@@H](C)N)[C@H](C)O)[C@@H](C)O)[C@H](C)O)C(N)=O` [analogue 504], for which, in the assay on LPS, the “% mice surviving 41 hours” value came out at 100%, the “% mice with diarrhoea at 19 hrs” value is 40% and the “% mice with exudate at 19 hrs” value is 60%.

With `C[C@H](O)[C@@H](NC(=O)[C@H](Cc1ccc(O)cc1)NC(=O)[C@@H](NC(=O)[C@H](NC(=O)[C@@H](NC(=O)[C@H](NC(=O)[C@H](CO)NC(=O)[C@H](N)CO)[C@H](C)O)[C@@H](C)O)[C@H](C)O)[C@@H](C)O)C(N)=O` [analogue 505, D-Ser-Ser-D-Thr-Thr-D-Thr-Thr-Tyr-D-Thr] (H-[dS]S[dT]T[dT]TY[dT]-NH2), the “LPS activation of human neutrophils” value in the assay on human neutrophils [1] was “inhibits LPS activation”. In the assay on LPS, the “% mice surviving 41 hours” value came to 100%, the “% mice with diarrhoea at 19 hrs” value was determined as 40% and the “% mice with exudate at 19 hrs” value is on record as 20%. Also, the “TNF priming and activation of human neutrophils” value in the assay on human neutrophils [2] is “inhibits TNF priming and activation”.

Turning to “human vasoactive intestinal peptide (HSDAVFTDNYTRLRKQMAVKKYLNSILN; ends and bridges not checked; UniProt P01282 125-152, looked up) [VIP, reference compound]”, in assay [3], the gp120-induced neurotoxicity result is reported as “completely eliminated”. In assay [4], the analgesia entry is listed as “produced analgesia”.
